Assay results published in patent US12281335B2, “Methods and compositions for delivery of viral vectors across the blood-brain barrier” (priority 2017, dated 2025).
“Also recorded” adds a separate entry of the source. Ends that are not written are not given here.

Key:
[1] = tested on: C57BL/6 mice; experiment: Quantitation of luciferase expression in tissues; format: in vivo, mouse; conditions: 0.1 mM peptides + 5E+10 vg AAV8/luc
Procedure: Quantitation of luciferase expression in tissues. Animals utilized for imaging studies were sacrificed after one-week post imaging work, and the tissues of the heart, liver, spleen, skeletal muscle and brain were collected, and were minced and homogenized in passive lysis buffer. Then the lysates were centrifuged at 10,000 rpm for 5 minutes to remove cellular debris. Supernatant was transferred to 96-well plates for luciferase activity analysis as described above. Total protein concentration in tissue lysates was measured using the Bradford assay (Bio-Rad Laboratories, Philadelphia, PA).

[2] = tested on: C57BL/6 mice; experiment: Measurement of AAV genome copy number in tissue; format: in vivo, mouse; conditions: 0.1 mM peptides + 5E+10 vg AAV8/luc; vs AAV8 only
Procedure: Measurement of AAV genome copy number in tissue. Total gDNA from different minced tissues was isolated with the DNeasy blood & tissue kit (Qiagen, USA). Luciferase gene was measured by qPCR assay. Mouse-lamin gene served as an internal control.

[3] = tested on: C57BL/6 mice; experiment: In vivo luciferase imaging after retro-orbital injection of AAV8/luc with peptides; set-up: species or system mouse; conditions: 0.1 mM peptides + 5E+10 vg AAV8/luc, retro-orbital vein, 7th day
Procedure: Animal study. […] Mice were administered with AAV8/Luc incubated with peptides via retro-orbital injection. Luciferase expression was imaged at the indicated time points using a Xenogen IVIS Lumina (Caliper Lifesciences, Waltham, MA) following intraperitoneal injection of D-luciferin substrate (Nanolight Pinetop, AZ). Bioluminescent images were analyzed using Living Image (PerkinElmer, Waltham, MA). At various time points after injection, blood was collected from the retro-orbital plexus, and the viral titers were tested by qPCR.

[4] = tested on: human transferrin binding to AAV8 virions; experiment: AAV8 competitive binding assay; conditions: pre-incubation with AAV8, then human transferrin; pull down with transferrin antibody, qPCR
Procedure: AAV8 competitive binding assay. For THR competitive binding analysis, 10 ul of Protein G resin (Thermo, USA) per system was incubated with 1 ug of human transferrin antibody or goat IgG antibody control at 4° C. overnight. […] After that, the mixture was added to the complex of protein G resin and transferrin antibody and incubated at 4° C. overnight. Finally, the complex was stringently washed three times with cold DPBS. DNA from the complex was extracted and applied for qPCR to determine AAV genome copy number per cell using luc specific primers.
To investigate whether THR also binds to the same location of AAV8 virions as human serum proteins, we performed a competitive assay. […] The transferrin antibody was used to pull down transferrin bound AAV8 virions and AAV8 gene copy number was measured by qPCR.

[5] = tested on: HEK293 cells or Huh7 cells; experiment: In vitro transduction assay, AAV8/luc with peptides; format: cell-based, human; conditions: 10000 vg AAV8/luc incubated with peptides 2 h at 4° C.; both cell lines; 48 h; vs AAV8 only
Procedure: In vitro transduction assay. At least 4-5 h prior to AAV transduction, cells were seeded in 48-well plates with a density of 1E+05 cells each well. Cells were infected with 1E+04 vector genomes (vg) of AAV8/luc virus per cell and harvested after 48 h. Luciferase activity was measured following manufacturer's instruction (Promega, Madison, WI).
The complex of AAV8 and peptides influences AAV8 transduction in vitro and in vivo. To identify the potential and functional peptides that enhanced AAV8 transduction, we screened several reported peptides as shown in Table 5 and Table 6. First, we tested the cytotoxicity of peptides at different concentrations on cells. […] After that, we performed the transduction assay in vitro. We incubated the 10000 vg AAV8/luc and peptides for 2 h at 4° C., and then applied the mixture to HEK293 cells or Huh7 cells. After 48 h, the cell lysate was collected for luciferase analysis.

[6] = tested on: C57BL mice; experiment: Systemic administration of AAV9/PB5-3 complex, imaging and genome copy number; format: in vivo, mouse
Procedure: 1×10^10 particles of AAV9/luc vectors were incubated with PB5-3 for 2 hr at 4° C. The complex was injected into C57BL mice via the retro-orbital vein. At indicated time points, mouse imaging was performed. (FIG. 16A) representative imaging. (FIG. 16B) luciferase expression. (FIG. 16C) AAV genome copy number. The results represented the average and standard derivation from five mice.
PB5-3 peptide enhances AAV9 transduction in the brain after systemic administration. To study the effect of PB5-3 peptide on AAV9 transduction in mice, we injected AAV9 vectors pre-incubated with PB5-3 peptide into C57BL mice via the retro-orbital vein. At days 1, 3, 7, and 14 post AAV administration, mouse imaging was taken. […] Transduction in the liver was similar regardless of AAV9 pre-incubation with PB5-3 peptide (FIG. 16B). Consistent to tissue transgene expression, AAV genome copy number in the brain but not in other tissues was higher in mice receiving the complex of AAV9 and PB5-3 (FIG. 16C).

[7] = tested on: C57BL mice; experiment: Systemic administration of AAV6 and AAV8 pre-incubated with PB5-3, imaging; format: in vivo, mouse; conditions: pre-incubated with PB5-3, days 5 and 10
Procedure: AAV/luc vectors from serotypes 6 or 8 at a dose of 5×10^10 or 1×10^10 particles, respectively, were incubated with PB5-3 for 2 hrs at 4° C. The complex was injected into C57BL mice via retro-orbital vein. At day 5 and 10 post AAV injection, mouse imaging was carried out. Representative imaging is shown from five mice.
No effect of PB5-3 peptide on AAV brain transduction from other serotypes after systemic administration. To confirm the result in vitro that PB5-3 peptide could not efficiently bind to other AAV serotypes except for AAV9, we administered AAV6 and AAV8 vectors pre-incubated with PB5-3 in C57BL mice via retro-orbital injection. At days 5 and 10 post AAV application, mouse imaging was carried out.

[8] = tested on: Huh7 or hCMEC/D3 cells; experiment: Transduction of AAV serotypes 2, 6 and 8 with PB5-3 in vitro; format: cell-based; conditions: incubated with PB5-3; either cell line
Procedure: 1×10^9 particles of AAV/luc vectors from serotype 2 (FIG. 15A), 6 (FIG. 15B), and 8 (FIG. 15C) were incubated with PB5-3 peptide for 2 hr at 4° C. The complex of AAV vector and peptide was applied to Huh7 or hCMEC/D3 cells. Two days later, the lysate from these cells was harvested for luciferase analysis.
Analysis of enhancement of AAV transduction from other serotypes with PB5-3 peptide in vitro. To further investigate the specific effect of PB5-3 on AAV9, we tested the effect of PB5-3 on AAV transduction from other serotypes. AAV vectors from serotypes 2, 6, and 8 were incubated with PB5-3 and then the mixture was applied to Huh7 or hCMEC/D3 cells. The transduction was detected two days later after AAV infection.

[9] = tested on: different cell types; conditions: different concentrations, 48 hrs
Procedure: 1×10^4 cells were incubated with PB5-3 peptide at different concentrations for 48 hrs. Cell proliferation was analyzed with MTT assay (FIG. 14A). AAV9/luc vectors at a dose of 1×10^9 particles were incubated with PB5-3 peptide for 2 hrs at 4° C., then the mixture was applied to different cells and incubated for 2 days. Luciferase expression from cell lysate was detected (FIG. 14B). For comparison, PB5-3 was added to cells just before infection of AAV9 (FIG. 14C).

[10] = tested on: BBB hCMEC/D3 endothelial cells; experiment: In vitro endothelial cell permeability analysis of AAV9; format: cell-based, human; conditions: AAV9 pre-incubated with PB5-3 vs AAV9 with DPBS
Procedure: Media in the basal chamber was collected at indicated time points and viral genome copy number was analyzed by qPCR. All treatments were performed in triplicate. *p<0.05 when compared to cells with the AAV9 only.
PB5-3 peptide enhances AAV9 permeability in vitro. To study whether PB5-3 affects the ability of AAV9 to cross the endothelial cell layer, we performed an in vitro endothelial cell permeability analysis in a well-defined system using BBB hCMEC/D3 endothelial cells. Two groups were designed: an AAV9 vector incubated with DPBS (AAV9 cohort); and an AAV9 vector incubated with PB5-3 (AAV9-PB5-3 cohort). […] These observations indicate that the interaction of AAV9 with the PB5-3 peptide increased the ability of AAV9 to cross the BBB.

[11] = tested on: AAV9 virions; experiment: Phage binding to AAV-coated plate
Procedure: FIGS. 13A-13B show binding specificity of PB5-3 peptide to AAV9. After coating with 1×10^10 particles of AAV9, different phages at a dose of 1×10^11 were added to a 96 well plate and incubated. After washing, the number of bound phages was detected (FIG. 13A). A 96 well-plate was coated with 1×10^10 particles of AAV vectors/well from serotypes 6, 8 and 9 overnight. After washing, 1×10^11 of PB5-3 phages were added and incubated at room temperature for 2 hrs. After washing, the phage particles were detected (FIG. 13B).
To study the AAV9 virion binding affinity of the peptides isolated from phage, first we compared the affinity of the different peptides to AAV9 virions. After incubation of an AAV9-coated plate with different phages and several washings, much more PB5-3 phages were detected to bind to AAV9 than PB5-5 and PB5-14 phages (FIG. 13A). […] We coated the plate with AAV virions from different serotypes. After incubation with PB5-3 phages, the number of phages on the AAV9-coated plate was much higher than that with AAV6 and AAV8 (FIG. 13B).

[12] = tested on: Huh7, Hela, C2C12 and hCMEC/D3; experiment: AAV9/luc transduction in cell lines with PB5-3; format: cell-based
Procedure: Cell proliferation was analyzed with MTT assay (FIG. 14A). […] Luciferase expression from cell lysate was detected (FIG. 14B).
PB5-3 peptide specifically enhances AAV9 transduction in cell lines. Next, we examined the effect of PB5-3 on AAV9 transduction in vitro. […] Consistent with previous studies, the direct interaction of peptide and AAV virions is required to enhance AAV9 transduction.

(LRKLRKRLL)2 (LRKLRKRLLLRKLRKRLL) [ApoE (159-167)2]
AAV8 brain transduction (luc expression and genome number) [1]: increased AAV8 transduction in the brain | AAV genome copy number in the brain [2]: much higher | transgene expression in the liver (imaging) [3]: higher

FILMVWAPFI [PEPXT-1, control peptide, neutral polarity]
inhibition of transferrin binding to AAV8 [4]: no effect

GRKKRRQRRRPPQ [HIV-1 TAT (48-60)]
AAV8 transduction (luciferase) [5]: significantly enhanced AAV8 transduction | AAV8 brain transduction (luc expression and genome number) [1]: no effect on brain transduction | AAV8 liver transduction [1]: increased AAV8 liver transduction | transgene expression in the liver (imaging) [3]: higher

KKALLALALHHLAHLALALKKAC [LAH4]
AAV8 transduction (luciferase) [5]: significantly enhanced AAV8 transduction | AAV8 brain transduction (luc expression and genome number) [1]: no effect on brain transduction | AAV8 liver transduction [1]: increased AAV8 liver transduction | transgene expression in the liver (imaging) [3]: higher

QFAALPVRAHYG-NH2 [PB5-3]
AAV9 transduction in brain (imaging) ([6]; 1×10^10 particles AAV9/luc pre-incubated with PB5-3, retro-orbital vein): specifically enhanced AAV9 ability to cross the BBB and increase brain transduction; also recorded: high transduction in brain tissues | AAV genome copy number in the brain ([6]; complex of AAV9 and PB5-3, not in other tissues): higher | AAV9 transduction in the liver ([6]; with vs without PB5-3 pre-incubation): similar | brain transduction from AAV6 and AAV8 [7]: No brain transduction enhancement; also recorded: no effect | transduction of AAV2, 6 or 8 [8]: No enhanced transduction; also recorded: no enhancement | toxicity (MTT assay) [9]: no toxicities | endothelial cell permeability of AAV9 [10]: significant increase in the endothelial cell permeability; also recorded: increases AAV9 permeability | number of phages on AAV9-coated plate vs other serotypes ([11]; vs AAV6 and AAV8 coated plates): much higher | phages bound to AAV9-coated plate ([11]; vs PB5-5 and PB5-14 phages): much more | AAV9 transduction, PB5-3 incubated with AAV9 virions ([12]; 2 hrs at 4° C. pre-incubation, Huh7, Hela, C2C12 and hCMEC/D3): enhanced transduction; also recorded: specifically enhances AAV9 transduction in vitro | AAV9 transduction, PB5-3 without incubation ([12]; PB5-3 added to cells just before infection of AAV9): failed to increase AAV9 transduction

TFFYGGSRGKRNNFKTEEY-OH [Angiopep-2]
AAV8 brain transduction (luc expression and genome number) [1]: increased AAV8 transduction in the brain | AAV genome copy number in the brain [2]: much higher | transgene expression in the liver (imaging) [3]: higher

YQQILTSMPSRNVIQISNDLENLRDLLHVL [Leptin 30 (61-90)]
AAV8 transduction (luciferase) [5]: significantly enhanced AAV8 transduction | AAV8 brain transduction (luc expression and genome number) [1]: increased AAV8 transduction in the brain | AAV genome copy number in the brain [2]: much higher | transgene expression in the liver (imaging) [3]: higher
